US9981929B2, “Method for prevention of premature polymerization” (NITTO BELGIUM NV, priority 2015, dated 2018)

Assays:
[1] = Kugelrohr distillation (purification) of SMA in the presence of the inhibitors; conditions: 500 ppm inhibitor, 10 g SMA, kugelrohr 240 °C, about 0.2 mbar; visual viscosity increase
Protocol: The temperature of the kugelrohr is set to 240° C. The distillation starts when the vacuum reached about 0.2 mbar. Polymerization in the rotating pitch is evaluated by visually determining increased viscosity.
The inhibitors were added as such to the SMA prior to the distillation, no methanolic solution as described earlier is used.

[2] = Synthesis of SMA via transesterification in the presence of the inhibitors; conditions: 500 ppm inhibitor
Protocol: SMA is prepared via transesterification in the presence of the indicated inhibitors. A two-neck flask, equipped with a Dean-Stark apparatus and a reflux condenser, is charged with three equivalents of methyl methacrylate, one equivalent of stearyl/palmityl alcohol and 500 ppm of inhibitor. Air is bubbled through the solution using a needle, septum and vacuum pump, set at 900 mbar.
The methyl methacrylate/methanol azeotrope is collected and at the end of the reaction any remaining methyl methacrylate is removed under reduced pressure at the rotavapor.

[3] = end of reaction after removal of methanol and excess methyl methacrylate

Row | SMILES | Polymerization [1] | Properties end (color of the reaction mixture) [2, 3] | Properties start (color of the reaction mixture) ([2]; start of reaction) | Properties end (precipitate / solubility of catalyst/inhibitor) [2, 3] | Properties start (solubility of catalyst/inhibitor) ([2]; start of reaction)
1 | CCCCCCCCS(=O)(=O)[O-].CN(C)c1ccc2nc3ccc(N(C)C)cc3[s+]c2c1 [Inhibitor I-1, octanesulfonate salt of methylene blue] | no |  |  |  | 
2 | CCCCCCCCS(=O)(=O)[O-].CN(C)c1ccc2nc3ccc(N(C)C)cc3[s+]c2c1.[Cl-].[Na+] [Inhibitor I-1a] | no |  |  |  | 
3 | CCCCCCCCCCCCCCCCS(=O)(=O)[O-].CN(C)c1ccc2nc3ccc(N(C)C)cc3[s+]c2c1.[Cl-].[Na+] [Inhibitor I-2a] | no | brown liquid very | dark blue solution |  | 
4 | CC(C)(C)c1cc(OCCCS(=O)(=O)[O-])c(C(C)(C)C)cc1O.CN(C)c1ccc2nc3ccc(N(C)C)cc3[s+]c2c1 [Inhibitor I-4] | no | purple liquid | deep purple solution |  | 
5 | CN(C)c1ccc2nc3ccc(=[N+](C)C)cc-3sc2c1 [MB, methylene blue] |  | brown liquid | dark blue solution |  | 
6 | COc1ccc(O)cc1 [MeHQ, 4-methoxyphenol] |  | yellow liquid white | colorless solution | precipitate (catalyst) | homogeneous
